In the NIST ThermoML archive (doi:10.1021/je400076x):
Numbers after ± are expanded uncertainties.

Settings: Crystal; DTA

- Normal melting temperature: 60.30 ± 5 °C
SMILES: CCCCn1cc[n+](C)c1.[Cl-] [1-butyl-3-methylimidazolium chloride]
